Experimental data: PubChem BioAssay AID248 (DTP/NCI, 2004)
Where “and” joins values, the source holds several entries; their conditions need not be identical. Equal entries are not always repeated. Toxic doses and inconclusive results are not listed.

Test system: L1210 leukemia ip in BDF1 mice, survival T/C
Assay: NCI In Vivo Anticancer Drug Screen. Data for tumor model L1210 Leukemia (intraperitoneal) in B6D2F1 (BDF1) mice
Details: endpoint: mean survival time, higher = longer survival
Method in brief: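 Survival endpoint. Drug-treated group vs vehicle group, expressed as T divided by C. Tumor passaged by transplantation.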

[1] = dose: 12.5 mg/kg/injection, schedule: Q01DX009 (ip), vehicle: Klucel (hydroxypropylcellulose) (HPC)
[2] = dose: 100.0 mg/kg/injection, schedule: Q01DX001 (ip), vehicle: saline with Tween-80
[3] = dose: 200.0 mg/kg/injection, schedule: Q01DX001 (ip), vehicle: saline with Tween-80
[4] = dose: 400.0 mg/kg/injection, schedule: Q01DX001 (ip), vehicle: saline with Tween-80
[5] = dose: 100.0 mg/kg/injection, schedule: Q01DX009 (ip), vehicle: saline with Tween-80
[6] = dose: 200.0 mg/kg/injection, schedule: Q01DX009 (ip), vehicle: saline with Tween-80

O=C(C[n+]1cccc(/C=N\O)c1)c1ccc(-c2ccc(C(=O)C[n+]3cccc(/C=N\O)c3)cc2)cc1
T/C (dose: 1.5 mg/kg/injection, schedule: Q01DX009 (ip), vehicle: Klucel (hydroxypropylcellulose) (HPC)): 97 % of control
T/C (dose: 2.5 mg/kg/injection, schedule: Q01DX009 (ip), vehicle: Klucel (hydroxypropylcellulose) (HPC)): 102 % of control
T/C (dose: 3.0 mg/kg/injection, schedule: Q01DX009 (ip), vehicle: Klucel (hydroxypropylcellulose) (HPC)): 97 % of control
T/C (dose: 4.0 mg/kg/injection, schedule: Q01DX009 (ip), vehicle: Klucel (hydroxypropylcellulose) (HPC)): 97 % of control
T/C (dose: 6.0 mg/kg/injection, schedule: Q01DX009 (ip), vehicle: Klucel (hydroxypropylcellulose) (HPC)): 94 % of control and 102 % of control
T/C (dose: 9.0 mg/kg/injection, schedule: Q01DX009 (ip), vehicle: Klucel (hydroxypropylcellulose) (HPC)): 92 % of control
T/C (dose: 12.0 mg/kg/injection, schedule: Q01DX009 (ip), vehicle: Klucel (hydroxypropylcellulose) (HPC)): 98 % of control
T/C [1]: 111 % of control

NC(=O)NN=C1CCCCC1
T/C [1]: 97 % of control
T/C (dose: 25.0 mg/kg/injection, schedule: Q01DX009 (ip), vehicle: Klucel (hydroxypropylcellulose) (HPC)): 97 % of control
T/C (dose: 50.0 mg/kg/injection, schedule: Q01DX009 (ip), vehicle: Klucel (hydroxypropylcellulose) (HPC)): 102 % of control
T/C (dose: 70.0 mg/kg/injection, schedule: Q01DX009 (ip), vehicle: Klucel (hydroxypropylcellulose) (HPC)): 87 % of control

CCOC(=O)Cc1cc(O)ccc1O
T/C [2]: 109 % of control
T/C [3]: 89 % of control
T/C [4]: 91 % of control

COc1cc(C=Nc2ccc(-c3csc(COc4ccccc4)n3)cc2)ccc1N(CCCl)CCCl
T/C (dose: 3.7 mg/kg/injection, schedule: Q01DX015 (ip), vehicle: carboxymethylcellulose (CMC)): 116 % of control
T/C (dose: 6.2 mg/kg/injection, schedule: Q01DX015 (ip), vehicle: carboxymethylcellulose (CMC)): 117 % of control
T/C (dose: 9.3 mg/kg/injection, schedule: Q01DX015 (ip), vehicle: carboxymethylcellulose (CMC)): 119 % of control
T/C (dose: 10.0 mg/kg/injection, schedule: Q01DX001 (ip), vehicle: carboxymethylcellulose (CMC)): 121 % of control
T/C (dose: 15.0 mg/kg/injection, schedule: Q01DX015 (ip), vehicle: carboxymethylcellulose (CMC)): 124 % of control
T/C (dose: 20.0 mg/kg/injection, schedule: Q01DX001 (ip), vehicle: carboxymethylcellulose (CMC)): 123 % of control
T/C (dose: 40.0 mg/kg/injection, schedule: Q01DX001 (ip), vehicle: carboxymethylcellulose (CMC)): 156 % of control
T/C (dose: 50.0 mg/kg/injection, schedule: Q01DX001 (ip), vehicle: carboxymethylcellulose (CMC)): 107 % of control
T/C (dose: 50.0 mg/kg/injection, schedule: Q01DX015 (ip), vehicle: carboxymethylcellulose (CMC)): 96 % of control and 104 % of control and 92 % of control
T/C (dose: 66.6 mg/kg/injection, schedule: Q01DX001 (ip), vehicle: carboxymethylcellulose (CMC)): 164 % of control
T/C (dose: 100.0 mg/kg/injection, schedule: Q01DX001 (ip), vehicle: carboxymethylcellulose (CMC)): 156 % of control
T/C (dose: 200.0 mg/kg/injection, schedule: Q01DX001 (ip), vehicle: carboxymethylcellulose (CMC)): 104 % of control

C[C@H]1CC2=CC(=O)CC[C@]2(C)[C@H]2CC[C@@]3(C)[C@@H](CC[C@]3(C)O)[C@H]12
T/C (dose: 12.5 mg/kg/injection, schedule: Q01DX009 (sc), vehicle: saline): 102 % of control
T/C (dose: 25.0 mg/kg/injection, schedule: Q01DX009 (ip), vehicle: saline): 97 % of control
T/C (dose: 25.0 mg/kg/injection, schedule: Q01DX009 (sc), vehicle: saline): 107 % of control
T/C (dose: 50.0 mg/kg/injection, schedule: Q01DX001 (sc), vehicle: steriod suspending solution): 101 % of control
T/C (dose: 50.0 mg/kg/injection, schedule: Q01DX009 (ip), vehicle: saline): 100 % of control
T/C (dose: 50.0 mg/kg/injection, schedule: Q01DX009 (sc), vehicle: saline): 103 % of control
T/C (dose: 100.0 mg/kg/injection, schedule: Q01DX001 (sc), vehicle: steriod suspending solution): 101 % of control
T/C (dose: 100.0 mg/kg/injection, schedule: Q01DX009 (ip), vehicle: saline): 94 % of control
T/C (dose: 100.0 mg/kg/injection, schedule: Q01DX009 (sc), vehicle: saline): 100 % of control
T/C (dose: 200.0 mg/kg/injection, schedule: Q01DX001 (sc), vehicle: steriod suspending solution): 107 % of control
T/C (dose: 200.0 mg/kg/injection, schedule: Q01DX009 (ip), vehicle: acetone): 96 % of control
T/C (dose: 200.0 mg/kg/injection, schedule: Q01DX009 (ip), vehicle: saline): 96 % of control
T/C (dose: 200.0 mg/kg/injection, schedule: Q01DX009 (sc), vehicle: acetone): 101 % of control
T/C (dose: 400.0 mg/kg/injection, schedule: Q01DX001 (sc), vehicle: steriod suspending solution): 101 % of control

CCCCCCCCCCN=C(N)N/C(N)=N/S(=O)(=O)c1ccc(OCCCC)cc1
T/C (dose: 100.0 mg/kg/injection, schedule: Q04DX002 (ip), vehicle: Klucel (hydroxypropylcellulose) (HPC)): 103 % of control
T/C (dose: 200.0 mg/kg/injection, schedule: Q04DX002 (ip), vehicle: Klucel (hydroxypropylcellulose) (HPC)): 95 % of control
T/C (dose: 400.0 mg/kg/injection, schedule: Q04DX002 (ip), vehicle: Klucel (hydroxypropylcellulose) (HPC)): 103 % of control

CCOC(=O)/C=C1\CCCc2cc(C)c(C)cc21
T/C (dose: 100.0 mg/kg/injection, schedule: Q04DX003 (ip), vehicle: other): 105 % of control
T/C (dose: 200.0 mg/kg/injection, schedule: Q04DX003 (ip), vehicle: other): 94 % of control
T/C (dose: 400.0 mg/kg/injection, schedule: Q04DX003 (ip), vehicle: other): 104 % of control

CC(C(Nc1ccc(C(=O)O)cc1)C(F)(F)C(F)(F)C(F)(F)F)[N+](=O)[O-] (stereo not drawn)
T/C (dose: 100.0 mg/kg/injection, schedule: Q04DX003 (ip), vehicle: Klucel (hydroxypropylcellulose) (HPC)): 88 % of control
T/C (dose: 200.0 mg/kg/injection, schedule: Q04DX003 (ip), vehicle: Klucel (hydroxypropylcellulose) (HPC)): 89 % of control
T/C (dose: 400.0 mg/kg/injection, schedule: Q04DX003 (ip), vehicle: Klucel (hydroxypropylcellulose) (HPC)): 98 % of control

Cc1cc2cc3n(c2nn1)N=CCC3
T/C (dose: 100.0 mg/kg/injection, schedule: Q04DX002 (ip), vehicle: saline): 106 % of control
T/C (dose: 200.0 mg/kg/injection, schedule: Q04DX002 (ip), vehicle: saline): 103 % of control

NC(=S)N1N=C(c2ccccc2)CC1=O
T/C (dose: 75.0 mg/kg/injection, schedule: Q01DX001 (ip), vehicle: carboxymethylcellulose (CMC)): 107 % of control
T/C (dose: 150.0 mg/kg/injection, schedule: Q01DX001 (ip), vehicle: carboxymethylcellulose (CMC)): 96 % of control
T/C (dose: 300.0 mg/kg/injection, schedule: Q01DX001 (ip), vehicle: carboxymethylcellulose (CMC)): 96 % of control

Cc1ccc(Cl)cc1NC(=O)N1CCN(c2ccccc2)CC1
T/C [2]: 95 % of control
T/C [5]: 98 % of control and 103 % of control
T/C (dose: 100.0 mg/kg/injection, schedule: Q04DX002 (ip), vehicle: saline with Tween-80): 120 % of control
T/C (dose: 100.0 mg/kg/injection, schedule: Q04DX003 (ip), vehicle: saline): 101 % of control
T/C [3]: 87 % of control
T/C [6]: 100 % of control and 102 % of control
T/C (dose: 200.0 mg/kg/injection, schedule: Q04DX002 (ip), vehicle: saline with Tween-80): 98 % of control and 86 % of control
T/C (dose: 200.0 mg/kg/injection, schedule: Q04DX003 (ip), vehicle: saline): 90 % of control
T/C [4]: 100 % of control
T/C (dose: 400.0 mg/kg/injection, schedule: Q01DX009 (ip), vehicle: saline with Tween-80): 92 % of control
T/C (dose: 400.0 mg/kg/injection, schedule: Q04DX002 (ip), vehicle: saline with Tween-80): 95 % of control and 89 % of control
T/C (dose: 400.0 mg/kg/injection, schedule: Q04DX003 (ip), vehicle: saline): 95 % of control

NC(=S)S/C=C/C(=O)O
T/C (dose: 50.0 mg/kg/injection, schedule: Q01DX009 (ip), vehicle: saline with Tween-80): 96 % of control
T/C [5]: 93 % of control
T/C (dose: 100.0 mg/kg/injection, schedule: Q04DX003 (ip), vehicle: saline with Tween-80): 110 % of control
T/C [6]: 86 % of control
T/C (dose: 200.0 mg/kg/injection, schedule: Q04DX003 (ip), vehicle: saline with Tween-80): 100 % of control
T/C (dose: 400.0 mg/kg/injection, schedule: Q04DX003 (ip), vehicle: saline with Tween-80): 97 % of control
